This passage reports Activity results from ChEMBL document CHEMBL1914415, “A sucrose-derived scaffold for multimerization of bioactive peptides” (Bioorg Med Chem, 2011).

The structures appear in SMILES notation. The source made the active and inactive calls. No cut-off for these calls is given here.

The target in assay [1] is T1, Gastrin/cholecystokinin type B receptor (Homo sapiens) (UniProt P32239).
T1 sequence (whole entry): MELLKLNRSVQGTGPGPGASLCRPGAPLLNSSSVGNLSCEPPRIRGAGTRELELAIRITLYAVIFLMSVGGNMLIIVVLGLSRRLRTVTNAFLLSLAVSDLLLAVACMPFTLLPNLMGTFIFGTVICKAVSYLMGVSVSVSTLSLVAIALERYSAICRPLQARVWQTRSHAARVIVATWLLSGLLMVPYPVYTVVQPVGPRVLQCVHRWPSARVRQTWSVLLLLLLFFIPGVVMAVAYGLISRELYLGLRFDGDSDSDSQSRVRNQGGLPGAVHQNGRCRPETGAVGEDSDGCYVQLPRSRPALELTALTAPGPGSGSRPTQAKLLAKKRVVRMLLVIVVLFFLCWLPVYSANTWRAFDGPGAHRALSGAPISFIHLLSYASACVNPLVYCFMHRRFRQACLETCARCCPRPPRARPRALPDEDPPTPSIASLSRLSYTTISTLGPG
In words: Displacement of Eu-DTAP-CCK8-NH2 from CCK2 receptor expressed in human HEK293 cells at 10^-5 to 10^-12 M after 1 hr by time resolved fluorescence method. In kind it is cell-based.

For assay [2], the target named is Melanocortin receptor 4 (Homo sapiens) (UniProt P32245). Put plainly: Displacement of Eu-DTAP-NDP-alpha-MSH-NH2 from MC4 receptor expressed in human HEK293 cells at 10^-5 to 10^-12 M after 1 hr by time resolved fluorescence method. Type of assay: cell-based.
Sequence of Melanocortin receptor 4 (Homo sapiens) (P32245 whole entry): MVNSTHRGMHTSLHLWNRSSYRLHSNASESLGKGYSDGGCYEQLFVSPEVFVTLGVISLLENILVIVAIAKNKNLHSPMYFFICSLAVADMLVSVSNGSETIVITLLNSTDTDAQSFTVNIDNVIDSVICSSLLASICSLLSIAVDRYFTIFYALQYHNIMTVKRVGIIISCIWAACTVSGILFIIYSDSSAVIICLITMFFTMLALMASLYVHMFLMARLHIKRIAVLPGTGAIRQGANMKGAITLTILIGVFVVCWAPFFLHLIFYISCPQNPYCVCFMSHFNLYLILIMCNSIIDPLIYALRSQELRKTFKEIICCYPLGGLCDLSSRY

Turning to `NC(=O)[C@H](CO)NC(=O)CCCCCn1cc(CCCCOC[C@H]2O[C@@](COCCCCc3cn(CCCCCC(=O)N[C@@H](CO)C(N)=O)nn3)(O[C@H]3O[C@H](COCCCCc4cn(CCCCCC(=O)N[C@@H](CO)C(N)=O)nn4)[C@@H](OCCCCc4cn(CCCCCC(=O)N[C@@H](CO)C(N)=O)nn4)[C@H](OCCCCc4cn(CCCCCC(=O)N[C@@H](CO)C(N)=O)nn4)[C@H]3OCCCCc3cn(CCCCCC(=O)N[C@@H](CO)C(N)=O)nn3)[C@@H](OCCCCc3cn(CCCCCC(=O)N[C@@H](CO)C(N)=O)nn3)[C@@H]2OCCCCc2cn(CCCCCC(=O)N[C@@H](CO)C(N)=O)nn2)nn1`, the result in assay [1] and in assay [2] was inactive.
